In patent publication US20100240683A1, “COMBINATION THERAPY, COMPOSITION AND METHODS FOR THE TREATMENT OF CARDIOVASCULAR DISORDERS” (Syndromex Ltd., priority 2007, published 2010):
pIC50: −log10 of the molar value.

Experiments:
[1] = biological target: CYP3A4 (Homo sapiens, UniProt P08684); assay: in vitro
[2] = biological target: CYP2D6 (Homo sapiens, UniProt P10635); assay: in vitro
[3] = biological target: T1, CYP2C19 (Homo sapiens, UniProt P33261); assay: Fluorimetric CYP inhibition assay, CYP2C19-CEC
T1 sequence (P33261 whole entry): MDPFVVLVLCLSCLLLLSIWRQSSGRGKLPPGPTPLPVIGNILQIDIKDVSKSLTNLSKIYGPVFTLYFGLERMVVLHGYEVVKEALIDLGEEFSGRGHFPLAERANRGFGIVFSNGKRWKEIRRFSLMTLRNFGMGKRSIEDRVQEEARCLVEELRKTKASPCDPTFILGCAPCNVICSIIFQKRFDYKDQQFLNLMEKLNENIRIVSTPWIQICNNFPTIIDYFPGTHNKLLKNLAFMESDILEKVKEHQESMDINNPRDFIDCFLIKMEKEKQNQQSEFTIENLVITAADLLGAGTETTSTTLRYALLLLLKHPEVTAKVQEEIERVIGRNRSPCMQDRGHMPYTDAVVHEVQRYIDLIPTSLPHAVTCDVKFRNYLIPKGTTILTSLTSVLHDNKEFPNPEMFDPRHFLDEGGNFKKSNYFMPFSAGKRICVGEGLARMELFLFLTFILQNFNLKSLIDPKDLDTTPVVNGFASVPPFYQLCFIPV

[4] = biological target: T1, CYP2C19; assay: in vitro
[5] = biological target: T2, CYP2C8 (Homo sapiens, UniProt P10632); assay: in vitro
T2 sequence (P10632 1-490): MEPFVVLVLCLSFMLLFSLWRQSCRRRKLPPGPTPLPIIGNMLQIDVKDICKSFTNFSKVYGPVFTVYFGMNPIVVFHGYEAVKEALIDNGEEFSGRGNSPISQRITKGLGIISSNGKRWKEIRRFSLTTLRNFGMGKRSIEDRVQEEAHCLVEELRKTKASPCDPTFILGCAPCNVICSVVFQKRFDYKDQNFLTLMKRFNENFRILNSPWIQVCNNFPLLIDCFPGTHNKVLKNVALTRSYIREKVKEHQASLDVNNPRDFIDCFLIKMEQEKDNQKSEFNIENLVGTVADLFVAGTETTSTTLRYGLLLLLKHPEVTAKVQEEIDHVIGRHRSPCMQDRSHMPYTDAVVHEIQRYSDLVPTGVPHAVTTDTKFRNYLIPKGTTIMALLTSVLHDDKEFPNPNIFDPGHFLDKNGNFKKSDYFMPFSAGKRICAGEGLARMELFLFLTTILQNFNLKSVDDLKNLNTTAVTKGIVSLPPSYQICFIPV

[6] = biological target: T3, CYP1A2 (Homo sapiens, UniProt P05177); assay: in vitro
T3 sequence (P05177 1-516): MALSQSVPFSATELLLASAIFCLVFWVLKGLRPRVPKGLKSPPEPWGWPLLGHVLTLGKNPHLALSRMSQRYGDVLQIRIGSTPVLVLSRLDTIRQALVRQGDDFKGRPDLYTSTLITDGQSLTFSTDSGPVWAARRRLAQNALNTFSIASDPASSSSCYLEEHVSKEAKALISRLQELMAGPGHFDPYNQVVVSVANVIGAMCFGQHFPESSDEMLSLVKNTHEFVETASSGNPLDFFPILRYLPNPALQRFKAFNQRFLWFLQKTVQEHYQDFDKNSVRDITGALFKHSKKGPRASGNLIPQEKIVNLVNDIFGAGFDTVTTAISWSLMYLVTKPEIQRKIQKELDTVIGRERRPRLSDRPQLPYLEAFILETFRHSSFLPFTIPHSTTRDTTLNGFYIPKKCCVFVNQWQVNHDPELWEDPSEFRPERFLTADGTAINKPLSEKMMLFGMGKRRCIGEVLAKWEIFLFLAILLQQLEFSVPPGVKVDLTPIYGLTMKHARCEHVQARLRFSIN

[7] = biological target: T3, CYP1A2; assay: Fluorimetric CYP inhibition assay, CYP1A2-CEC
[8] = biological target: CYP2C9 (Homo sapiens, UniProt P11712); assay: in vitro
CYP2C9, sequence (P11712 whole entry): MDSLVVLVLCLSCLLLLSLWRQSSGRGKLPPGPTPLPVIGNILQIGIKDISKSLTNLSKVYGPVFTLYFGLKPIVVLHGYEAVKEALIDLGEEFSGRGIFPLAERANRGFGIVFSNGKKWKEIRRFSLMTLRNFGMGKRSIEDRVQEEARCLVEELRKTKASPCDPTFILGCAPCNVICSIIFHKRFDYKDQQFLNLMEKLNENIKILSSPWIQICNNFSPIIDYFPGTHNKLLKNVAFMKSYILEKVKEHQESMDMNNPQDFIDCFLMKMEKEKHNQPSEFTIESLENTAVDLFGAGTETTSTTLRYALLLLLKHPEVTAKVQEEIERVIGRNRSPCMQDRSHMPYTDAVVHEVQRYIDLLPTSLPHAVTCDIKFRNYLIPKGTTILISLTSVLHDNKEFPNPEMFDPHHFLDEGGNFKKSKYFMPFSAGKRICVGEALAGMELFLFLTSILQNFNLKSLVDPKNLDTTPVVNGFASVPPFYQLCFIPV

CYP2D6, sequence (P10635 whole entry): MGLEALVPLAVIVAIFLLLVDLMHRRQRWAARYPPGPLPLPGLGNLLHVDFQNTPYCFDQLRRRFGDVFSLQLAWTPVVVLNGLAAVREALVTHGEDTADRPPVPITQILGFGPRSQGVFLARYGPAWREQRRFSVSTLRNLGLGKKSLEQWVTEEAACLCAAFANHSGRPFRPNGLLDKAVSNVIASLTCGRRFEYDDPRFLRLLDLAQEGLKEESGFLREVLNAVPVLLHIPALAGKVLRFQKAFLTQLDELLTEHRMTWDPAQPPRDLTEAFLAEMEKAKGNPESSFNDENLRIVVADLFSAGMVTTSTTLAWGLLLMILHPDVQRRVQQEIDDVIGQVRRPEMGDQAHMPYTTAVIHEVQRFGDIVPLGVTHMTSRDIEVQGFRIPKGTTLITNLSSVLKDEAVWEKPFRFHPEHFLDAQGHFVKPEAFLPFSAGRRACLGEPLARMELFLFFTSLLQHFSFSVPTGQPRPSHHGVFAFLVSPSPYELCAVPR
CYP3A4, sequence (P08684 whole entry): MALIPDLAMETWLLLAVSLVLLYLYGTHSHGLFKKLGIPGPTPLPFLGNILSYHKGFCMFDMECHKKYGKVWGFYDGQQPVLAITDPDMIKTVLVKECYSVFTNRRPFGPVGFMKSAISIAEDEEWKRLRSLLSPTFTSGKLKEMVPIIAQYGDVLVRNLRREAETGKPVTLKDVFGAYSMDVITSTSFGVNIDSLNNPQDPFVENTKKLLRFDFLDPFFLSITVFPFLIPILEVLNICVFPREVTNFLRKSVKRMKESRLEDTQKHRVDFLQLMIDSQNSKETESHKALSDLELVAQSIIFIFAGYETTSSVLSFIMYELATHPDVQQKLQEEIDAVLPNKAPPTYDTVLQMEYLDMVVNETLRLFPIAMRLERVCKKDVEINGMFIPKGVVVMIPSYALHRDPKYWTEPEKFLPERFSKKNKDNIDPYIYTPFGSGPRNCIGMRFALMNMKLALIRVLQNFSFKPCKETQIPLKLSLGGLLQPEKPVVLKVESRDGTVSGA

CC(C)(CCCCCCCCCCCCC(C)(C)C(=O)O)C(=O)O [M16αα, 2,2,15,15-tetramethylhexadecane-1,16-dioic acid]
inhibition at 0.41 μM ([1]; % Inhibition (set 1)): 3% | inhibition at 100 μM ([1]; % Inhibition (set 1)): 23% | inhibition at 1.23 μM ([1]; % Inhibition (set 2)): 0% | inhibition at 3.7 μM ([1]; % Inhibition (set 2)): 0% | inhibition at 100 μM ([1]; % Inhibition (set 2)): 19% | inhibition at 0.05 μM ([2]; % Inhibition (set 1)): 0% | inhibition at 0.41 μM ([2]; % Inhibition (set 1)): 0% | inhibition at 1.23 μM ([2]; % Inhibition (set 1)): 0% | inhibition at 3.7 μM ([2]; % Inhibition (set 1)): 0% | inhibition at 11.11 μM ([2]; % Inhibition (set 1)): 3% | inhibition at 33.33 μM ([2]; % Inhibition (set 1)): 11% | inhibition at 100 μM ([2]; % Inhibition (set 1)): 7% | inhibition at 0.05 μM ([2]; % Inhibition (set 2)): 0% | inhibition at 0.41 μM ([2]; % Inhibition (set 2)): 0% | inhibition at 1.23 μM ([2]; % Inhibition (set 2)): 0% | inhibition at 3.7 μM ([2]; % Inhibition (set 2)): 0% | inhibition at 11.11 μM ([2]; % Inhibition (set 2)): 2% | inhibition at 33.33 μM ([2]; % Inhibition (set 2)): 15% | inhibition at 100 μM ([2]; % Inhibition (set 2)): 0% | pIC50 [3]: 4.34 | inhibition at 0.05 μM ([4]; % Inhibition (set 1)): 0% | inhibition at 0.41 μM ([4]; % Inhibition (set 1)): 0% | inhibition at 1.23 μM ([4]; % Inhibition (set 1)): 0% | inhibition at 3.7 μM ([4]; % Inhibition (set 1)): 0% | inhibition at 11.11 μM ([4]; % Inhibition (set 1)): 3% | inhibition at 33.33 μM ([4]; % Inhibition (set 1)): 57% | inhibition at 100 μM ([4]; % Inhibition (set 1)): 63% | inhibition at 0.05 μM ([4]; % Inhibition (set 2)): 1% | inhibition at 0.41 μM ([4]; % Inhibition (set 2)): 2% | inhibition at 1.23 μM ([4]; % Inhibition (set 2)): 4% | inhibition at 3.7 μM ([4]; % Inhibition (set 2)): 4% | inhibition at 11.11 μM ([4]; % Inhibition (set 2)): 12% | inhibition at 33.33 μM ([4]; % Inhibition (set 2)): 43% | inhibition at 100 μM ([4]; % Inhibition (set 2)): 70% | inhibition at 0.05 μM ([5]; % Inhibition (set 1)): 0% | inhibition at 0.41 μM ([5]; % Inhibition (set 1)): 1% | inhibition at 1.23 μM ([5]; % Inhibition (set 1)): 0% | inhibition at 3.7 μM ([5]; % Inhibition (set 1)): 4% | inhibition at 11.11 μM ([5]; % Inhibition (set 1)): 13% | inhibition at 33.33 μM ([5]; % Inhibition (set 1)): 23% | inhibition at 100 μM ([5]; % Inhibition (set 1)): 43% | inhibition at 0.05 μM ([5]; % Inhibition (set 2)): 0% | inhibition at 0.41 μM ([5]; % Inhibition (set 2)): 0% | inhibition at 1.23 μM ([5]; % Inhibition (set 2)): 0% | inhibition at 3.7 μM ([5]; % Inhibition (set 2)): 0% | inhibition at 11.11 μM ([5]; % Inhibition (set 2)): 0% | inhibition at 33.33 μM ([5]; % Inhibition (set 2)): 15% | inhibition at 100 μM ([5]; % Inhibition (set 2)): 38% | inhibition at 0.05 μM ([6]; % Inhibition (set 1)): 0% | inhibition at 0.41 μM ([6]; % Inhibition (set 1)): 6% | inhibition at 1.23 μM ([6]; % Inhibition (set 1)): 0% | inhibition at 3.7 μM ([6]; % Inhibition (set 1)): 9% | inhibition at 11.11 μM ([6]; % Inhibition (set 1)): 5% | inhibition at 33.33 μM ([6]; % Inhibition (set 1)): 7% | inhibition at 100 μM ([6]; % Inhibition (set 1)): 8% | inhibition at 0.05 μM ([6]; % Inhibition (set 2)): 0% | inhibition at 0.41 μM ([6]; % Inhibition (set 2)): 3% | inhibition at 1.23 μM ([6]; % Inhibition (set 2)): 1% | inhibition at 3.7 μM ([6]; % Inhibition (set 2)): 5% | inhibition at 11.11 μM ([6]; % Inhibition (set 2)): 6% | inhibition at 33.33 μM ([6]; % Inhibition (set 2)): 4% | inhibition at 100 μM ([6]; % Inhibition (set 2)): 9% | pIC50 [7]: < 4.00 | inhibition at 0.05 μM ([8]; % Inhibition (set 1)): 4% | inhibition at 0.41 μM ([8]; % Inhibition (set 1)): 5% | inhibition at 1.23 μM ([8]; % Inhibition (set 1)): 2% | inhibition at 3.7 μM ([8]; % Inhibition (set 1)): 6% | inhibition at 11.11 μM ([8]; % Inhibition (set 1)): 15% | inhibition at 33.33 μM ([8]; % Inhibition (set 1)): 15% | inhibition at 100 μM ([8]; % Inhibition (set 1)): 29% | inhibition at 0.05 μM ([8]; % Inhibition (set 2)): 0% | inhibition at 0.41 μM ([8]; % Inhibition (set 2)): 5% | inhibition at 1.23 μM ([8]; % Inhibition (set 2)): 9% | inhibition at 3.7 μM ([8]; % Inhibition (set 2)): 0% | inhibition at 11.11 μM ([8]; % Inhibition (set 2)): 7% | inhibition at 33.33 μM ([8]; % Inhibition (set 2)): 14% | inhibition at 100 μM ([8]; % Inhibition (set 2)): 31%
